ChEMBL document CHEMBL1697781, “Assessment of the health effects of chemicals in humans: II. Construction of an adverse effects database for QSAR modeling” (Curr Drug Discov Technol, 2004)

What was measured:
Conditions in all cases: human
[1] = test system: Hepatotoxicity; assay: FDA HLAED, liver enzyme composite activity
[2] = test system: Hepatotoxicity; assay: FDA HLAED, alkaline phosphatase increase
[3] = test system: Hepatotoxicity; assay: FDA HLAED, serum glutamic oxaloacetic transaminase (SGOT) increase
[4] = test system: Hepatotoxicity; assay: FDA HLAED, serum glutamic pyruvic transaminase (SGPT) increase
[5] = test system: Hepatotoxicity; assay: FDA HLAED, lactate dehydrogenase (LDH) increase
[6] = test system: Hepatotoxicity; assay: FDA HLAED, gamma-glutamyl transferase (GGT) increase
Wherever GGT Increase - Index Value is given: reference of the scale not given here.
Wherever LDH Increase - Index Value is given: reference of the scale not given here.

## CC(O)(CS(=O)(=O)c1ccc(F)cc1)C(=O)Nc1ccc(C#N)c(C(F)(F)F)c1 (stereo not drawn) [BICALUTAMIDE]
[1]
  Composite Activity - Active: 3
  Composite Activity - Marginal: 0
  Composite Activity - Score: Active
[2]
  Alkaline Phosphatase Increase - Activity Score: Active
  Alkaline Phosphatase Increase - Index Value: 8.5
  Alkaline Phosphatase Increase - Number of Reports: >= 4
[3]
  SGOT Increase - Activity Score: Active
  SGOT Increase - Index Value: 13.6
  SGOT Increase - Number of Reports: >= 4
[4]
  SGPT Increase - Activity Score: Active
  SGPT Increase - Index Value: 11.9
  SGPT Increase - Number of Reports: >= 4
[5]
  LDH Increase - Activity Score: Inactive
  LDH Increase - Index Value: 5.1
  LDH Increase - Number of Reports: < 4
[6]
  GGT Increase - Activity Score: Inactive
  GGT Increase - Index Value: 1.7
  GGT Increase - Number of Reports: < 4

## CC(C)NCC(O)COc1ccc(COCCOC(C)C)cc1 (stereo not drawn) [BISOPROLOL]
[1]
  Composite Activity - Active: 1
  Composite Activity - Marginal: 0
  Composite Activity - Score: Inactive
[2]
  Alkaline Phosphatase Increase - Activity Score: Inactive
  Alkaline Phosphatase Increase - Index Value: 3.1
  Alkaline Phosphatase Increase - Number of Reports: < 4
[3]
  SGOT Increase - Activity Score: Inactive
  SGOT Increase - Index Value: 0
  SGOT Increase - Number of Reports: < 4
[4]
  SGPT Increase - Activity Score: Inactive
  SGPT Increase - Index Value: 3.1
  SGPT Increase - Number of Reports: < 4
[5]
  LDH Increase - Activity Score: Inactive
  LDH Increase - Index Value: 0
  LDH Increase - Number of Reports: < 4
[6]
  GGT Increase - Activity Score: Active
  GGT Increase - Index Value: 12.3
  GGT Increase - Number of Reports: < 4

## Cc1ccc(C(=O)Oc2ccc(C(O)CNC(C)(C)C)cc2OC(=O)c2ccc(C)cc2)cc1 (stereo not drawn) [BITOLTEROL]
[1]
  Composite Activity - Active: 0
  Composite Activity - Marginal: 0
  Composite Activity - Score: Inactive
[2]
  Alkaline Phosphatase Increase - Activity Score: Inactive
  Alkaline Phosphatase Increase - Index Value: 0
  Alkaline Phosphatase Increase - Number of Reports: < 4
[3]
  SGOT Increase - Activity Score: Inactive
  SGOT Increase - Index Value: 0
  SGOT Increase - Number of Reports: < 4
[4]
  SGPT Increase - Activity Score: Inactive
  SGPT Increase - Index Value: 0
  SGPT Increase - Number of Reports: < 4
[5]
  LDH Increase - Activity Score: Inactive
  LDH Increase - Index Value: 0
  LDH Increase - Number of Reports: < 4
[6]
  GGT Increase - Activity Score: Inactive
  GGT Increase - Index Value: 0
  GGT Increase - Number of Reports: < 4

## CC[N+](C)(C)Cc1ccccc1Br.Cc1ccc(S(=O)(=O)[O-])cc1 [BRETYLIUM TOSYLATE]
[1]
  Composite Activity - Active: 0
  Composite Activity - Marginal: 0
  Composite Activity - Score: Inactive
[2]
  Alkaline Phosphatase Increase - Activity Score: Inactive
  Alkaline Phosphatase Increase - Index Value: 0
  Alkaline Phosphatase Increase - Number of Reports: < 4
[3]
  SGOT Increase - Activity Score: Inactive
  SGOT Increase - Index Value: 0
  SGOT Increase - Number of Reports: < 4
[4]
  SGPT Increase - Activity Score: Inactive
  SGPT Increase - Index Value: 0
  SGPT Increase - Number of Reports: < 4
[5]
  LDH Increase - Activity Score: Inactive
  LDH Increase - Index Value: 0
  LDH Increase - Number of Reports: < 4
[6]
  GGT Increase - Activity Score: Inactive
  GGT Increase - Index Value: 0
  GGT Increase - Number of Reports: < 4

## Brc1c(NC2=NCCN2)ccc2nccnc12 [BRIMONIDINE]
[1]; Liver
  Composite Activity - Active: 0
  Composite Activity - Marginal: 0
  Composite Activity - Score: Inactive
[2]
  Alkaline Phosphatase Increase - Activity Score: Inactive
  Alkaline Phosphatase Increase - Index Value: 0
  Alkaline Phosphatase Increase - Number of Reports: < 4
[3]
  SGOT Increase - Activity Score: Inactive
  SGOT Increase - Index Value: 1.1
  SGOT Increase - Number of Reports: < 4
[4]
  SGPT Increase - Activity Score: Inactive
  SGPT Increase - Index Value: 0
  SGPT Increase - Number of Reports: < 4
[5]
  LDH Increase - Activity Score: Inactive
  LDH Increase - Index Value: 0
  LDH Increase - Number of Reports: < 4
[6]
  GGT Increase - Activity Score: Inactive
  GGT Increase - Index Value: 0
  GGT Increase - Number of Reports: < 4

## CC(C)C[C@H]1C(=O)N2CCC[C@H]2[C@]2(O)O[C@](NC(=O)[C@@H]3C=C4c5cccc6[nH]c(Br)c(c56)C[C@H]4N(C)C3)(C(C)C)C(=O)N12 [BROMOCRIPTINE]
[1]
  Composite Activity - Active: 0
  Composite Activity - Marginal: 0
  Composite Activity - Score: Inactive
[2]
  Alkaline Phosphatase Increase - Activity Score: Inactive
  Alkaline Phosphatase Increase - Index Value: 0
  Alkaline Phosphatase Increase - Number of Reports: < 4
[3]
  SGOT Increase - Activity Score: Inactive
  SGOT Increase - Index Value: 0
  SGOT Increase - Number of Reports: < 4
[4]
  SGPT Increase - Activity Score: Inactive
  SGPT Increase - Index Value: 0
  SGPT Increase - Number of Reports: < 4
[5]
  LDH Increase - Activity Score: Inactive
  LDH Increase - Index Value: 0
  LDH Increase - Number of Reports: < 4
[6]
  GGT Increase - Activity Score: Inactive
  GGT Increase - Index Value: 0
  GGT Increase - Number of Reports: < 4
